# Experimental data reported in US12187713B2, “Immunomodulators, compositions and methods thereof” (Betta Pharmaceuticals Co., Ltd, priority 2019, dated 2025).
# Target: PD-1/PD-L1 (Homo sapiens (Human), UniProt Q9NZQ7)
# Assay: PD-1/PD-L1 Binding Assay (Alphascreen)
# Settings: numeric values
# In short: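 PD-1/PD-L1 binding detected by anti-6×His acceptor and streptavidin donor beads after 120 min in the dark at 25 °C. Beforehand, the two proteins were incubated 15 min at 25 °C with inhibitor at 0.015–300 nM (1% DMSO). IC50 comes from a log concentration–response curve.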
# Sequence of PD-1/PD-L1 (Q9NZQ7 19-238): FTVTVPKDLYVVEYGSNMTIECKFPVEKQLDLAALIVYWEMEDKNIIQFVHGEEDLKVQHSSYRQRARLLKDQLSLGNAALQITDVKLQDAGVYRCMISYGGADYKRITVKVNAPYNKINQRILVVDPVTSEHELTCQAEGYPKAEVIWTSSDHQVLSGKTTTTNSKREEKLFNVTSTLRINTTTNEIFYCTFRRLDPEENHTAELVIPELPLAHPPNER
row,SMILES,IC50 [nM]
1,"Cc1c(-c2nc3cc(CNCCO)c(OCc4ccc(C#N)nc4)cc3o2)cccc1-c1cccc(-c2nc3cc(CN4CCC[C@H]4C(=O)O)c(OC(F)F)cc3o2)c1C [Example 119, ((2-(3′-(6-((6-cyanopyridin-3-yl)methoxy)-5-(((2-hydroxyethyl)amino)methyl)benzo[d]oxazol-2-yl)-2,2′-dimethyl-[1,1′-biphenyl]-3-yl)-6-(difluoromethoxy)benzo[d]oxazol-5-yl)methyl)-L-proline]",1.9
2,"Cc1c(-c2nc3cc(CN4CCC4(C)O)ccc3o2)cccc1-c1cccc(-c2nc3cc(CN4CCC[C@H]4C(=O)O)c(OC(F)F)cc3o2)c1C (stereo partly drawn) [Example 104, ((6-(difluoromethoxy)-2-(3′-(5-((2-hydroxy-2-methylazetidin-1-yl)methyl)benzo[d]oxazol-2-yl)-2,2′-dimethyl-[1,1′-biphenyl]-3-yl)benzo[d]oxazol-5-yl)methyl)-L-proline]",0.19
3,"Cc1c(-c2nc3cc(CN4CCC[C@H]4C(=O)O)c(OC(F)F)cc3o2)cccc1-c1cccc(-c2nc3cc(CN4CCC4)cc(C)c3o2)c1C [Example 94, ((2-(3′-(5-(azetidin-1-ylmethyl)-7-methylbenzo[d]oxazol-2-yl)-2,2′-dimethyl-[1,1′-biphenyl]-3-yl)-6-(difluoromethoxy)benzo[d]oxazol-5-yl)methyl)-L-proline]",1.9
4,"Cc1c(-c2ccc(CN3CCC(C)C3)c(F)c2)cccc1-c1cccc(-c2nc3cc(CN4CCC[C@H]4C(=O)O)c(OC(F)F)cc3o2)c1C (stereo partly drawn) [Example 238, ((6-(difluoromethoxy)-2-(3″-fluoro-2,2′-dimethyl-4″-((3-methylpyrrolidin-1-yl)methyl)-[1,1′:3′,1″-terphenyl]-3-yl)benzo[d]oxazol-5-yl)methyl)-L-proline]",2.3
5,"Cc1c(-c2nc3cc(CN4CCC[C@H]4C(=O)O)c(OC(F)F)cc3o2)cccc1-c1cccc(N2CCC(N3CCCC3)CC2)c1C [Example 306, ((6-(difluoromethoxy)-2-(2,2′-dimethyl-3′-(4-(pyrrolidin-1-yl)piperidin-1-yl)-[1,1′-biphenyl]-3-yl)benzo[d]oxazol-5-yl)methyl)-L-proline]",1.5
6,"CCN(CC)C1CN(Cc2cc3nc(-c4cccc(-c5cccc(-c6nc7cc(CN8CCC[C@H]8C(=O)O)c(OC(F)F)cc7o6)c5C)c4C)oc3cc2OC(F)F)C1 [Example 68, ((2-(3′-(5-((3-(diethylamino)azetidin-1-yl)methyl)-6-(difluoromethoxy)benzo[d]oxazol-2-yl)-2,2′-dimethyl-[1,1′-biphenyl]-3-yl)-6-(difluoromethoxy)benzo[d]oxazol-5-yl)methyl)-L-proline]",2.4
7,"Cc1c(-c2ccc(CN(C)CCCN(C)C)cc2)cccc1-c1cccc(-c2nc3cc(CN4CCC[C@H]4C(=O)O)c(OC(F)F)cc3o2)c1C [Example 226, ((6-(difluoromethoxy)-2-(4″-(((3-(dimethylamino)propyl)(methyl)amino)methyl)-2,2′-dimethyl-[1,1′:3′,1″-terphenyl]-3-yl)benzo[d]oxazol-5-yl)methyl)-L-proline]",4.7
8,"Cc1c(-c2ccc3c(c2)CNC3)cccc1-c1cccc(-c2nc3cc(CN4CCC[C@H]4C(=O)O)c(OC(F)F)cc3o2)c1C [Example 289, ((6-(difluoromethoxy)-2-(3′-(isoindolin-5-yl)-2,2′-dimethyl-[1,1′-biphenyl]-3-yl)benzo[d]oxazol-5-yl)methyl)-L-proline]",0.66
9,"Cc1c(-c2nc3cc(CN)c(OC(F)F)cc3o2)cccc1-c1cccc(-c2nc3cc(CN4CCC[C@H]4C(=O)O)c(OC(F)F)cc3o2)c1C [Example 24, ((2-(3′-(5-(aminomethyl)-6-(difluoromethoxy)benzo[d]oxazol-2-yl)-2,2′-dimethyl-[1,1′-biphenyl]-3-yl)-6-(difluoromethoxy)benzo[d]oxazol-5-yl)methyl)-L-proline]",0.98

# Same assay, conditions: range symbols
row,SMILES,IC50 [nM]
1,"Cc1c(-c2nc3cc(CN4CC(S(C)(=O)=O)C4)c(OC(F)F)cc3o2)cccc1-c1cccc(-c2nc3cc(CN4CCC[C@H]4C(=O)O)c(OC(F)F)cc3o2)c1C [Example 41, ((6-(difluoromethoxy)-2-(3′-(6-(difluoromethoxy)-5-((3-(methylsulfonyl)azetidin-1-yl)methyl)benzo[d]oxazol-2-yl)-2,2′-dimethyl-[1,1′-biphenyl]-3-yl)benzo[d]oxazol-5-yl)methyl)-L-proline]",5 to 50
2,"Cc1c(-c2nc3cc(CN4CCC[C@@H]4C(=O)O)c(OC(F)F)cc3o2)cccc1-c1cccc(-c2nc3cc(CN4CCC(C#N)C4)cc(C#N)c3o2)c1C (stereo partly drawn) [Example 143, ((2-(3′-(7-cyano-5-((3-cyanopyrrolidin-1-yl)methyl)benzo[d]oxazol-2-yl)-2,2′-dimethyl-[1,1′-biphenyl]-3-yl)-6-(difluoromethoxy)benzo[d]oxazol-5-yl)methyl)-D-proline]",0.1 to 5
3,"Cc1c(-c2nc3c(o2)CCN(CCC(=O)O)C3)cccc1-c1cccc(-c2nc3cc(CN4CCC[C@H]4C(=O)O)c(OC(F)F)cc3o2)c1C [Example 187, ((2-(3′-(5-(2-carboxyethyl)-4,5,6,7-tetrahydrooxazolo[4,5-c]pyridin-2-yl)-2,2′-dimethyl-[1,1′-biphenyl]-3-yl)-6-(difluoromethoxy)benzo[d]oxazol-5-yl)methyl)-L-proline]",0.1 to 5
4,"Cc1c(-c2nc3cc(CN4CCC[C@H]4C(=O)O)c(OC(F)F)cc3o2)cccc1-c1cccc(-c2nc3cc(CN4CCC(CN(C)C)C4)cc(C#N)c3o2)c1C (stereo partly drawn) [Example 152, ((2-(3′-(7-cyano-5-((3-((dimethylamino)methyl)pyrrolidin-1-yl)methyl)benzo [d]oxazol-2-yl)-2,2′-dimethyl-[1,1′-biphenyl]-3-yl)-6-(difluoromethoxy)benzo[d]oxazol-5-yl)methyl)-L-proline]",0.1 to 5
5,"Cc1c(-c2nc3cc(CN4CCC[C@H]4C(=O)O)c(OC(F)F)cc3o2)cccc1-c1cccc(-c2nc3cc(CN4CC5(CNC(=O)C5)C4)cc(C#N)c3o2)c1C [Example 146, ((2-(3′-(7-cyano-5-((7-oxo-2,6-diazaspiro[3.4]octan-2-yl)methyl)benzo[d]oxazol-2-yl)-2,2′-dimethyl-[1,1′-biphenyl]-3-yl)-6-(difluoromethoxy)benzo[d]oxazol-5-yl)methyl)-L-proline]",0.1 to 5
6,"Cc1c(-c2nc3cc(CN4CC[C@H](C(=O)O)C4)c(OC(F)F)cc3o2)cccc1-c1cccc(-c2nc3cc(CN4CC[C@H](C)C4)cc(C#N)c3o2)c1C [Example 259, (S)-1-((2-(3′-(7-cyano-5-(((S)-3-methylpyrrolidin-1-yl)methyl)benzo[d]oxazol-2-yl)-2,2′-dimethyl-[1,1′-biphenyl]-3-yl)-6-(difluoromethoxy)benzo[d]oxazol-5-yl)methyl)pyrrolidine-3-carboxylic acid]",0.1 to 5
7,"Cc1c(-c2nc3c(o2)CCN(CC(N)=O)C3)cccc1-c1cccc(-c2nc3cc(CN4CCC[C@H]4C(=O)O)c(OC(F)F)cc3o2)c1C [Example 196, ((2-(3′-(5-(2-amino-2-oxoethyl)-4,5,6,7-tetrahydrooxazolo[4,5-c]pyridin-2-yl)-2,2′-dimethyl-[1,1′-biphenyl]-3-yl)-6-(difluoromethoxy)benzo[d]oxazol-5-yl)methyl)proline]",5 to 50
8,"Cc1c(-c2nc3cc(CN4CCC[C@H]4C(=O)O)c(OC(F)F)cc3o2)cccc1-c1cccc(-c2nc3cc(CN4CCCC4)c(F)c(F)c3n2C)c1C [Example 298, ((2-(3′-(6,7-difluoro-1-methyl-5-(pyrrolidin-1-ylmethyl)-1H-benzo[d]imidazol-2-yl)-2,2′-dimethyl-[1,1′-biphenyl]-3-yl)-6-(difluoromethoxy)benzo[d]oxazol-5-yl)methyl)-L-proline]",5 to 50
9,"Cc1c(-c2nc3cc(CN(C)C[C@H]4CCCO4)c(OC(F)F)cc3o2)cccc1-c1cccc(-c2nc3cc(CN4CCC[C@H]4C(=O)O)c(OC(F)F)cc3o2)c1C [Example 30, ((6-(difluoromethoxy)-2-(3′-(6-(difluoromethoxy)-5-((methyl(((R)-tetrahydrofuran-2-yl)methyl)amino)methyl)benzo[d]oxazol-2-yl)-2,2′-dimethyl-[1,1′-biphenyl]-3-yl)benzo[d]oxazol-5-yl)methyl)-L-proline]",0.1 to 5
10,"Cc1c(-c2nc3cc(CN4CCC[C@H]4C(=O)O)c(OC(F)F)cc3o2)cccc1-c1cccc(-c2nc3cc(CNCc4cn(C)cn4)cc(C#N)c3o2)c1C [Example 160, ((2-(3′-(7-cyano-5-((((1-methyl-1H-imidazol-4-yl)methyl)amino)methyl)benzo[d]oxazol-2-yl)-2,2′-dimethyl-[1,1′-biphenyl]-3-yl)-6-(difluoromethoxy)benzo[d]oxazol-5-yl)methyl)-L-proline]",0.1 to 5
11,"Cc1c(-c2nc3cc(CN4CCC[C@H]4C(=O)O)c(OC(F)F)cc3o2)cccc1-c1cccc(-c2ccc(CN3CCCC3)cc2F)c1C [Example 220, ((6-(difluoromethoxy)-2-(2″-fluoro-2,2′-dimethyl-4″-(pyrrolidin-1-ylmethyl)-[1,1′:3′,1″- terphenyl]-3-yl)benzo[d]oxazol-5-yl)methyl)proline]",0.1 to 5
12,"Cc1c(-c2nc3cc(CN4CCC[C@H]4C(=O)O)c(OC(F)F)cc3o2)cccc1-c1cccc(N2CCC(CN3CC(C)(C)C3)CC2)c1C [Example 308, ((6-(difluoromethoxy)-2-(3′-(4-((3,3-dimethylazetidin-1-yl)methyl)piperidin-1-yl)-2,2′-dimethyl-[1,1′-biphenyl]-3-yl)benzo[d]oxazol-5-yl)methyl)-L-proline]",0.1 to 5
13,"Cc1c(-c2ccc(CN3CCCC3)c(OCC3CC3)c2)cccc1-c1cccc(-c2nc3cc(CN4CCC[C@H]4C(=O)O)c(OC(F)F)cc3o2)c1C [Example 250, ((2-(3″-(cyclopropylmethoxy)-2,2′-dimethyl-4″- (pyrrolidin-1-ylmethyl)-[1,1′:3′,1″-terphenyl]-3-yl)-6-(difluoromethoxy)benzo[d]oxazol-5-yl)methyl)proline]",0.1 to 5
